Source: ChEMBL document CHEMBL1201862, “PubChem BioAssay data set” (2004)
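Briefly, cells in 96-well plates were exposed to five compound concentrations for 48 h, and endpoints were estimated by linear interpolation. The concentration for 50% growth inhibition is given as GI50.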 Active and inactive are the calls of the source. No stated cut-off is given here; in the data, active = GI50 up to about 1.1 µM and inactive = higher.

What was measured:
Assay in all cases: NCI anticancer screen, dose series, 48 h
HOP-62 = system: HOP-62
HCT-15 = system: HCT-15
UACC-257 = system: UACC-257
SW-620 = system: SW-620
OVCAR-5 = system: OVCAR-5
HCT-116 = system: HCT-116
LOX IMVI = system: LOX IMVI
786-0 = system: 786-0
EKVX = system: EKVX
M14 = system: M14
CCRF-CEM = system: CCRF-CEM
RXF 393 = system: RXF 393
K562 = system: K562
MCF7 = system: MCF7
CAKI-1 = system: CAKI-1
MDA-MB-231 = system: MDA-MB-231
PC-3 = system: PC-3
NCI/ADR-RES = system: NCI/ADR-RES
T47D = system: T47D

| Compound | GI50 (HOP-62) | GI50 (HCT-15) [µM] | GI50 (UACC-257) | GI50 (SW-620) | GI50 (OVCAR-5) | GI50 (HCT-116) | GI50 (LOX IMVI) | GI50 (786-0) | GI50 (EKVX) | GI50 (M14) | GI50 (CCRF-CEM) | GI50 (RXF 393) | GI50 (K562) | GI50 (MCF7) | GI50 (CAKI-1) | GI50 (MDA-MB-231) | GI50 (PC-3) | GI50 (NCI/ADR-RES) | GI50 (T47D) |
| --- | --- | --- | --- | --- | --- | --- | --- | --- | --- | --- | --- | --- | --- | --- | --- | --- | --- | --- | --- |
| COc1ccc(O)cc1C=O | > 100 µM (inactive) | 37.6 | 48.1 µM (inactive) | 47.5 µM (inactive) | > 100 µM (inactive) | 50 µM (inactive) | 54 µM (inactive) | > 100 µM (inactive) | > 100 µM (inactive) | 43.2 µM (inactive) | 44 µM (inactive) | > 100 µM (inactive) | 33.9 µM (inactive) | – | – | – | – | – | – |
| CCCCCC[C@H]1CC(=O)C2CCCC[C@@]23CC[C@H](CCl)N13.CCCCCC[C@H]1CC(=O)C2CCCC[C@@]23C[C@H](Cl)CN13 (some centres not stated) | 91.6 µM (inactive) | 60.3 | 43 µM (inactive) | – | > 100 µM (inactive) | 51.9 µM (inactive) | – | > 100 µM (inactive) | 49.9 µM (inactive) | 29.2 µM (inactive) | 33.2 µM (inactive) | – | 28.6 µM (inactive) | 40.1 µM (inactive) | 58.9 µM (inactive) | 84.5 µM (inactive) | 23.3 µM (inactive) | – | – |
| Cc1c(-c2nnc(-c3ccc(Cl)cc3)o2)c(=O)n(-c2ccccc2)n1C | > 100 µM (inactive) | > 100 | > 100 µM (inactive) | > 100 µM (inactive) | – | > 100 µM (inactive) | > 100 µM (inactive) | > 100 µM (inactive) | > 100 µM (inactive) | > 100 µM (inactive) | > 100 µM (inactive) | > 100 µM (inactive) | > 100 µM (inactive) | – | – | – | – | – | – |
| CCn1c(-c2cc3ccccc3cc2OC(C)=O)n[nH]c1=S | 57.3 µM (inactive) | 27 | 24.2 µM (inactive) | 35 µM (inactive) | 44.6 µM (inactive) | 18.5 µM (inactive) | 37.2 µM (inactive) | 75.7 µM (inactive) | 9.95 µM (inactive) | 24.2 µM (inactive) | 1.16 µM (inactive) | 11.1 µM (inactive) | 14.5 µM (inactive) | 30.8 µM (inactive) | 30.8 µM (inactive) | 26.1 µM (inactive) | 15.8 µM (inactive) | 21.2 µM (inactive) | 18.6 µM (inactive) |
| Oc1c2c(nc3cc4c(cc13)OCO4)-c1ccccc1CC2 | > 100 µM (inactive) | > 100 | > 100 µM (inactive) | > 100 µM (inactive) | – | > 100 µM (inactive) | > 100 µM (inactive) | > 100 µM (inactive) | > 100 µM (inactive) | > 100 µM (inactive) | > 100 µM (inactive) | 78 µM (inactive) | > 100 µM (inactive) | – | – | – | – | – | – |
| CN(C)c1ccc(/C=C(\C#N)C(=O)c2ccccc2)cc1Br | 20.8 µM (inactive) | – | > 100 µM (inactive) | 66.1 µM (inactive) | > 100 µM (inactive) | > 100 µM (inactive) | 25.5 µM (inactive) | > 100 µM (inactive) | > 100 µM (inactive) | > 100 µM (inactive) | 35.6 µM (inactive) | 14.6 µM (inactive) | 59.8 µM (inactive) | – | > 100 µM (inactive) | – | – | – | – |
| COC(=O)CCC1=CCC2(SC)C(=O)Nc3cccc1c32 (configuration not stated) | > 100 µM (inactive) | > 100 | > 100 µM (inactive) | > 100 µM (inactive) | > 100 µM (inactive) | > 100 µM (inactive) | > 100 µM (inactive) | > 100 µM (inactive) | 65.3 µM (inactive) | > 100 µM (inactive) | > 100 µM (inactive) | – | – | > 100 µM (inactive) | > 100 µM (inactive) | > 100 µM (inactive) | > 100 µM (inactive) | > 100 µM (inactive) | 4.7 µM (inactive) |
| N/N=C1\c2ccccc2C2/C(=N\N)c3ccccc3C12 (configuration not stated) | – | > 100 | > 100 µM (inactive) | > 100 µM (inactive) | > 100 µM (inactive) | – | > 100 µM (inactive) | > 100 µM (inactive) | > 100 µM (inactive) | > 100 µM (inactive) | > 100 µM (inactive) | > 100 µM (inactive) | > 100 µM (inactive) | – | > 100 µM (inactive) | – | – | – | – |
| Cn1ncnc1CCc1ccccc1 | > 100 µM (inactive) | > 100 | > 100 µM (inactive) | > 100 µM (inactive) | > 100 µM (inactive) | > 100 µM (inactive) | > 100 µM (inactive) | > 100 µM (inactive) | – | > 100 µM (inactive) | > 100 µM (inactive) | > 100 µM (inactive) | > 100 µM (inactive) | – | > 100 µM (inactive) | – | – | – | – |
| COC(=O)C(=O)C(C(=O)C=C(C)C)C(=O)C(=O)Nc1ccc(Cl)cc1C (configuration not stated) | > 100 µM (inactive) | > 100 | > 100 µM (inactive) | – | > 100 µM (inactive) | > 100 µM (inactive) | > 100 µM (inactive) | > 100 µM (inactive) | > 100 µM (inactive) | > 100 µM (inactive) | 87.5 µM (inactive) | > 100 µM (inactive) | 71.8 µM (inactive) | – | > 100 µM (inactive) | – | – | – | – |
| CCCCCC/C=C1\CCC(CN2CCCC2)C1=O (configuration not stated) | 18.7 µM (inactive) | 9.16 | 17.9 µM (inactive) | > 28.2 µM (inactive) | 18.3 µM (inactive) | 11.9 µM (inactive) | 8.3 µM (inactive) | 2.61 µM (inactive) | 18.5 µM (inactive) | 18.6 µM (inactive) | 4.49 µM (inactive) | 19.4 µM (inactive) | 3.87 µM (inactive) | – | > 38.5 µM (inactive) | – | – | – | – |
| CC(NC(=O)C(N)CC(=O)O)C(=O)OC12CC3CC(CC(C3)C1)C2 (configuration not stated) | – | > 100 | > 100 µM (inactive) | > 100 µM (inactive) | > 100 µM (inactive) | > 100 µM (inactive) | > 100 µM (inactive) | > 100 µM (inactive) | > 100 µM (inactive) | > 100 µM (inactive) | > 100 µM (inactive) | > 100 µM (inactive) | > 100 µM (inactive) | > 100 µM (inactive) | > 100 µM (inactive) | > 100 µM (inactive) | > 100 µM (inactive) | > 100 µM (inactive) | – |
| COc1cc(Nc2cnc3ccc(N)cc3n2)cc(OC)c1OC | 29.2 µM (inactive) | 69.2 | > 57 µM (inactive) | > 100 µM (inactive) | > 100 µM (inactive) | > 94.6 µM (inactive) | 36.6 µM (inactive) | > 100 µM (inactive) | > 100 µM (inactive) | > 100 µM (inactive) | 19.8 µM (inactive) | 45.3 µM (inactive) | 18.5 µM (inactive) | – | 59.2 µM (inactive) | – | – | – | – |
| COC(=O)[C@]12CCC(C)(C)C[C@H]1[C@H]1C(=O)C=C3[C@@]4(C)C=C(C#N)C(=O)C(C)(C)[C@@H]4CC[C@@]3(C)[C@]1(C)CC2 [BARDOXOLONE METHYL] | 0.0268 µM (active) | 0.0178 | 0.0455 µM (active) | 0.0219 µM (active) | 0.04 µM (active) | 0.0131 µM (active) | 0.0129 µM (active) | 0.0279 µM (active) | 0.0395 µM (active) | 0.0171 µM (active) | < 0.01 µM (active) | 0.0247 µM (active) | 0.0205 µM (active) | < 0.0107 µM (active) | 0.0273 µM (active) | 0.0301 µM (active) | 0.0165 µM (active) | 0.0188 µM (active) | 0.0288 µM (active) |
| O=C(CCN1CCCCC1CCO)Nc1ccc2c(c1)C(=O)c1ccc(NC(=O)CCN3CCCCC3CCO)cc1C2=O (configuration not stated) | 4.35 µM (inactive) | 11.2 | 5.33 µM (inactive) | 2.12 µM (inactive) | 17.7 µM (inactive) | 4.11 µM (inactive) | 2.99 µM (inactive) | 1.97 µM (inactive) | 7.41 µM (inactive) | – | 2.62 µM (inactive) | 2.12 µM (inactive) | 3.85 µM (inactive) | – | 23.7 µM (inactive) | – | – | – | – |
| O=C1c2c(c3c4ccccc4[nH]c3c3[nH]c4ccccc4c23)C(=O)N1Cc1ccccc1 | 3.95 µM (inactive) | 2.06 | 3.75 µM (inactive) | 3.7 µM (inactive) | 2.62 µM (inactive) | 2.74 µM (inactive) | 2.44 µM (inactive) | 3.13 µM (inactive) | 5.93 µM (inactive) | 3.31 µM (inactive) | 2.96 µM (inactive) | 1.51 µM (inactive) | 3.05 µM (inactive) | – | 3.65 µM (inactive) | – | – | – | – |
| CC(C)(C)c1ccccc1NS(=O)(=O)c1ccccc1 | > 100 µM (inactive) | > 100 | 45.1 µM (inactive) | > 100 µM (inactive) | > 100 µM (inactive) | 48 µM (inactive) | – | > 100 µM (inactive) | > 100 µM (inactive) | 96.2 µM (inactive) | 62.1 µM (inactive) | 76.7 µM (inactive) | 44.9 µM (inactive) | – | 64 µM (inactive) | – | – | – | – |
| Nc1nc(-c2ccco2)cc(-c2ccco2)n1 | > 100 µM (inactive) | > 100 | – | > 100 µM (inactive) | > 100 µM (inactive) | > 100 µM (inactive) | > 100 µM (inactive) | > 100 µM (inactive) | > 100 µM (inactive) | > 100 µM (inactive) | > 100 µM (inactive) | > 100 µM (inactive) | > 100 µM (inactive) | – | – | – | – | – | – |
| C/C=C(/CCC1NCCC2c3ccccc3NC12)[Si](C)(C)C (configuration not stated) | 15.2 µM (inactive) | 12.4 | 4.38 µM (inactive) | 3.02 µM (inactive) | 7.28 µM (inactive) | 3.52 µM (inactive) | 7.31 µM (inactive) | 11.3 µM (inactive) | 14.4 µM (inactive) | 3.66 µM (inactive) | 3.6 µM (inactive) | 6.53 µM (inactive) | 2.75 µM (inactive) | – | 10.8 µM (inactive) | – | – | – | – |
| COC1=C(C)C(=O)c2c(cc3c(c2O)C(C)(CCC=C(C)C)C(C)O3)C1=O (configuration not stated) | 18.2 µM (inactive) | 27.4 | > 72.9 µM (inactive) | > 100 µM (inactive) | > 100 µM (inactive) | > 100 µM (inactive) | 18.2 µM (inactive) | > 100 µM (inactive) | > 100 µM (inactive) | 23.4 µM (inactive) | > 100 µM (inactive) | > 100 µM (inactive) | > 54.8 µM (inactive) | – | > 100 µM (inactive) | – | – | – | – |
